# Data: article PMC10886891, “Enhanced Tumor Targeting and Antitumor Activity of Methylated β-Cyclodextrin-Threaded Polyrotaxanes by Conjugating Cyclic RGD Peptides” (Biomolecules, 2024)
# How the values were obtained:
# [1] = tested on: 4T1 cells; assay: Autophagic cell death: viability of 4T1 cells with 3-MA; assay type: cell-based, murine; settings: 2 mM 3-MA, 48 h
# Method: To investigate the induction of autophagic cell death by cRGD-Me-PRXs, 4T1cells were pretreated with 2 mM 3-methyladenine (3-MA; Fujifilm Wako Pure Chemical) for 1 h, followed by treatment with cRGD-Me-PRXs (100 μM threaded β-CD) in the presence of 3-MA for 48 h at 37 °C. Cell viability was determined as described above.
# [2] = Cholesterol solubilization (phase solubility); assay type: physicochemical; settings: pH 7.4, 24 h, 37 °C, n = 3
# Method: Figure 2 (A) ^1H NMR spectra of Me- N3-PRX and cRGD-Me-PRX in D2O at 25 °C. (B) FT-IR spectra of Me-N3-PRX and cRGD-Me-PRX. (C) Time course of the cleavage of N-Trt end groups in Me-PRX, cRGD-Me-PRX, and cRGE-Me-PRX at pH 7.4 (open symbols) and pH 5.0 (closed symbols) at 37 °C. The data are expressed as the mean ± SD (n = 3). (D) Phase-solubility diagrams of cholesterol with Me-β-CD, cRGD-Me-β-CD, Me-PRX, cRGD-Me-PRX, and cRGE-Me-PRX at pH 7.4 (brown bars) and pH 5.0 (blue bars). The solubility of cholesterol was determined after incubation for 24 h at 37 °C. The data are expressed as the mean ± SD (n = 3; **** p < 0.0001; ns: not significant).
# Another important aspect of Me-PRXs is the ability of released β-CDs to form an inclusion complex with intracellular cholesterol, because the interaction with intracellular cholesterol contributes to the induction of cell death. To assess this, the solubility of cholesterol was measured by incubating with Me-PRXs at pH 7.4 (physiological pH) and 5.0 (lysosomal pH) for 24 h was measured (Figure 2D). […] Additionally, the number of methyl groups of cRGD-Me-β-CD (12.5) was less than that of Me-β-CD (14.0), which may explain the reduced cholesterol solubilization capacity.
# [3] = Biodistribution in 4T1 tumor-bearing mice; assay type: in vivo, BALB/c mice; settings: 24 h after i.v., Cy5.5-labeled; 500 mg/kg (Figure 7), 300 mg/kg; n = 6
# Method: Animal experiments were approved by the Institutional Animal Care and Use Committee of Tokyo Medical and Dental University. Wild-type BALB/c mice (female, 8-weeks-old) were purchased from Japan SLC (Shizuoka, Japan). Cy5.5-labeled PRXs and CDs were intravenously administered to the mice at a dose of 300 mg/kg. After 24 h, the mice were anesthetized with an intraperitoneal injection of an anesthetized solution containing medetomidine hydrochloride (0.75 mg/kg), midazolam (4 mg/kg), and butorphanol tartrate (5 mg/kg). […] The mice were then perfused with saline, and the hearts, livers, lungs, spleens, kidneys, and tumors were harvested. The collected tissues (approximately 50 mg) were homogenized using a bead beater-type homogenizer (Beads Crusher μT-12; Taitec, Saitama, Japan) at 3000 rpm for 45 s. After centrifuging the homogenates (8000 rpm, 10 min), the supernatant was collected. The fluorescence intensities of the plasma and tissue homogenates were measured using Varioskan LUX at excitation and emission wavelengths of 673 and 707 nm, respectively. The amount of accumulated PRXs in the plasma and each tissue was calculated using the standard curve of Cy5.5-labeled Me-PRXs and Me-β-CDs, and the mean percentage of the injected dose per gram of tissue (ID %/g tissue) was determined for each sample.
# [4] = Blood chemical analysis; assay type: in vivo, BALB/c mice; settings: 500 mg/kg i.v., 24 h
# Method: The PRXs dissolved in PBS were intravenously administered at a dose of 500 mg/kg to female BALB/c mice (8 weeks). […] Plasma levels of blood urea nitrogen (BUN), creatinine (CRE), aspartate aminotransferase (AST), alanine aminotransferase (ALT), free cholesterol (F-CHO), cholesteryl esters (E-CHO), triglycerides (TG), and glucose (GLU) were measured using a Hitachi 7180 automatic analyzer (Hitachi, Tokyo, Japan). In addition, the mice were perfused with saline, and the major organs (heart, liver, spleen, lungs, and kidneys) were collected. The organs were fixed in 10% formalin solution for 1 d and embedded in paraffin. The paraffin blocks were cut into 3 μm sections, which were successively stained with H&E solution to assess histological alterations by bright-field microscope.
# [5] = among various β-CD derivatives; cited from earlier work
# From the text: Β-Cyclodextrin (β-CD) is a cyclic oligosaccharide comprising seven glucose units connected with α-1,4-linkages. Β-CD and its derivatives can incorporate various low-molecular-weight compounds, such as free cholesterol, into their hydrophobic cavity. Recently, the therapeutic applications of β-CD derivatives have received considerable attention, because they improve the pathology of various metabolic diseases, such as Niemann–Pick type C (NPC) disease, Alzheimer’s disease, and atherosclerosis, through the removal of excess free ch ...
# [6] = tested on: various cells, such as normal cells and apoptosis-resistant cells; settings: through interactions with cellular cholesterol; cited from earlier work
# From the text: Β-Cyclodextrin (β-CD) is a cyclic oligosaccharide comprising seven glucose units connected with α-1,4-linkages. Β-CD and its derivatives can incorporate various low-molecular-weight compounds, such as free cholesterol, into their hydrophobic cavity. […] 3-Methyladenine (3-MA) is a commonly used inhibitor of autophagy that functions by inhibiting class III phosphoinositide 3-kinase (PI3K) activity, which plays a pivotal role in autophagy induction. […] To exclude the effects of 3-MA on 4T1 cell viability, cRGD-Me-PRX-t ...
# [7] = tested on: integrin αv (Itgav) mRNA in 4T1 cells; assay: Downregulation of integrin αv by siRNA (RT-PCR); assay type: cell-based, murine; settings: compared with siControl; 30 nM, 24 h, normalized to Gapdh, n = 4
# Method: siRNAs against murine integrin subunit alpha V (siItgav; sense: 5′-[…]-3′, antisense: 5′-[…]-3′) and Mission siRNA universal negative control were purchased from Merck. The siRNAs were transfected into 4T1 cells using the Lipofectamine 3000 Transfection Reagent (Thermo Fisher Scientific) at 30 nM for 24 h according to the manufacturer’s instructions. Total RNA was extracted from 4T1 cells using the FastGene RNA Premium Kit (Nippon Genetics, Tokyo, Japan) following the manufacturer’s instructions. The total RNA concentration was measured using a NanoDrop One spectrophotometer (Thermo Fisher Scientific). Total RNA was then converted into cDNA using ReverTra Ace qPCR RT master mix (Toyobo, Osaka, Japan). RT-PCR was performed using the Thunderbird SYBR qPCR mix (Toyobo) on a CFX Connect Real-Time System (Bio-Rad, Hercules, CA, USA). The PCR primer sequences were as follows: murine integrin subunit alpha V (Itgav), forward: 5′-[…]-3′, reverse: 5′-[…]-3′, murine glyceraldehyde 3-phosphate dehydrogenase (Gapdh) forward: 5′-[…]-3′, reverse: 5′-[…]-3′. The PCR cycling conditions included a pre-denaturation at 95 °C for 1 min, followed by 40 cycles of denaturation at 95 °C for 15 s and extension at 60 °C for 30 s. The mRNA expression levels in each sample were determined by the comparative CT (ΔΔCT) method and were normalized to the expression levels of Gapdh.
molecule,measurement,setting,value
"Cn1cnc(N)c2ncnc1-2 [3-MA, 3-methyladenine]",effect on 4T1 cell viability alone,[1],did not affect cell viability
Randomly methylated β-CD [Me-β-CD],solubilization of cholesterol,[2],solubilization of cholesterol was observed
same,accumulation in kidney,[3],mostly accumulated in the kidney
same,hepatic and renal toxicity,[4],hepatic and renal toxicities
same,plasma AST,[4]; n = 6,increased
same,plasma BUN,[4]; n = 6,increased
same,plasma CRE,[4]; n = 6,increased
same,ability to form inclusion complexes with free cholesterol,[5],highest ability to form inclusion complexes with free cholesterol
same,apoptosis,[6],induced apoptosis
"siItgav: siRNA against murine integrin subunit alpha V; sense: 5′-GACUUAGUUGUAGGAGCUU-3′, antisense: 5′-AAGCUCCUACAACUAAGUC-3′ (chemistry not given here)",expression level of integrin αv,[7],32.9%
